Where “and” joins values, the source holds several entries; their conditions need not be identical. Equal values may be shown once.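 Method: 48-hour compound exposure of cells in 96-well plates, five concentrations, linear interpolation of endpoints. GI50 = concentration required for 50% inhibition of growth. TGI marks complete inhibition of growth.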

The values that follow come from PubChem BioAssay (NCI).

Test systems include HCT-116 colon; K-562 leukemia; OVCAR-4 ovarian; COLO 205 colon; MALME-3M melanoma; HL-60(TB) leukemia; DU-145 prostate; HS 578T breast.
Holding throughout (assay): DTP human tumour cell line panel, 48 h

For the molecule `O=C(O)C1C2C=CC(O2)C1C(=O)Nc1ncccn1` (stereo unspecified), the TGI in the experiment on HCT-116 colon, in the experiment with K-562 leukemia, with OVCAR-4 ovarian, in the experiment with COLO 205 colon, in the experiment on MALME-3M melanoma and in the experiment on HL-60(TB) leukemia was more than 100 µM in each case. Further, the TGI with DU-145 prostate and in the experiment on HS 578T breast was more than 100 µM each time.
`C[C@@H]1C/C=C\C(=O)O[C@H](/C=C/C#C/C=C/C(C)(C)[C@@H](O)c2cccc(O)c2Br)[C@@H](C)/C=C/[C@H](C)C[C@H](OC(N)=O)C1`: the GI50 with HCT-116 colon is 0.0362 µM; in the experiment with K-562 leukemia, 0.0332 µM; with OVCAR-4 ovarian, 6.45 µM; in the experiment on COLO 205 colon, 0.0435 µM; with MALME-3M melanoma it was 0.0419 µM; with HL-60(TB) leukemia it was 0.0382 µM. Besides, the results for the GI50 with DU-145 prostate and with HS 578T breast were 0.0663 µM and 0.4 µM, respectively. Moreover, the total growth inhibition concentration (TGI) in the experiment with HCT-116 colon was 12.5 µM; in the experiment on K-562 leukemia, more than 32.7 µM; in the experiment with OVCAR-4 ovarian, 22 µM; in the experiment on COLO 205 colon, 21.4 µM; in the experiment on MALME-3M melanoma, 4.6 µM; with HL-60(TB) leukemia, 2.26 µM. The results for the TGI in the experiment with DU-145 prostate and in the experiment with HS 578T breast were 19.4 µM and 32.3 µM, respectively.
Regarding `c1ccc(CC(NCCNC(Cc2ccccc2)c2ccccc2)c2ccccc2)cc1` (stereo unspecified), the GI50 was 0.2 µM in the experiment with HCT-116 colon; 0.307 µM with K-562 leukemia; 0.415 µM in the experiment on OVCAR-4 ovarian; 0.191 µM with COLO 205 colon; 0.339 µM in the experiment on MALME-3M melanoma; 0.322 µM with HL-60(TB) leukemia. In addition, the GI50 in the experiment with DU-145 prostate is 0.395 µM; with HS 578T breast, 1.64 µM. In addition, the TGI with HCT-116 colon was 0.486 µM; with K-562 leukemia, 0.89 µM; in the experiment on OVCAR-4 ovarian, 2.02 µM; in the experiment on COLO 205 colon, 0.382 µM; in the experiment with MALME-3M melanoma it was 1.44 µM; in the experiment on HL-60(TB) leukemia, 0.89 µM. Also, the TGI with DU-145 prostate was determined as 1.87 µM; in the experiment on HS 578T breast it was 4.12 µM.
On to `C1=C2CNCC3=Cc4ccc5ccccc5c4OC23Oc2c1ccc1ccccc21`, for which the GI50 is 3.01 µM in the experiment with HCT-116 colon; 2.95 µM in the experiment on K-562 leukemia; 4.71 µM with OVCAR-4 ovarian; 2.09 µM with COLO 205 colon; 12.5 µM in the experiment with MALME-3M melanoma; 2.69 µM in the experiment on HL-60(TB) leukemia. For the same molecule, the GI50 was 3.29 µM with DU-145 prostate and 2.24 µM in the experiment on HS 578T breast. Further, the TGI is 13.1 µM in the experiment with HCT-116 colon; 21.2 µM with K-562 leukemia; 19.8 µM in the experiment on OVCAR-4 ovarian; 4.23 µM in the experiment with COLO 205 colon; 38.5 µM in the experiment with MALME-3M melanoma; 7.68 µM in the experiment with HL-60(TB) leukemia. Further, the figures for the TGI in the experiment with DU-145 prostate and with HS 578T breast were 11.1 µM and 10.4 µM, respectively.
As to `Cn1cnc([N+](=O)[O-])c1Sc1nc(N)nc2nc[nH]c12`, the GI50 was 2.71 µM with HCT-116 colon; 4.2 µM in the experiment on K-562 leukemia; 4.38 µM in the experiment with OVCAR-4 ovarian; 15 µM in the experiment with COLO 205 colon; 13 µM with MALME-3M melanoma; 5.69 µM with HL-60(TB) leukemia. In addition, the GI50 in the experiment with DU-145 prostate was 2.91 µM; with HS 578T breast, 14.5 µM. The TGI with HCT-116 colon was more than 100 µM; with K-562 leukemia, more than 100 µM; with OVCAR-4 ovarian it was more than 100 µM; with COLO 205 colon, more than 74.5 µM; with MALME-3M melanoma, more than 100 µM; in the experiment on HL-60(TB) leukemia, more than 100 µM. Besides, the TGI in the experiment on DU-145 prostate and with HS 578T breast was more than 100 µM throughout.
With `CN(C)C(=O)SC1=C(c2c(Cl)cccc2Cl)C(=O)c2ccccc21`, the GI50 in the experiment with HCT-116 colon was 1.75 µM; in the experiment with K-562 leukemia it was 2.98 µM; in the experiment on OVCAR-4 ovarian, 4.24 µM; in the experiment on COLO 205 colon it was 2.22 µM; with MALME-3M melanoma, 1.66 µM; in the experiment on HL-60(TB) leukemia, 2.84 µM. For the same molecule, the GI50 with DU-145 prostate is 2.4 µM; in the experiment with HS 578T breast it was 20 µM. The TGI in the experiment on HCT-116 colon came out at 3.28 µM; with K-562 leukemia it was 14.8 µM; in the experiment on OVCAR-4 ovarian, 10.8 µM; with COLO 205 colon, 4.42 µM; with MALME-3M melanoma it was 3.74 µM; with HL-60(TB) leukemia, 6.53 µM. The figures for the TGI with DU-145 prostate and with HS 578T breast were 5.61 µM and more than 75.5 µM, respectively.
Turning to `CN(C)CCCN1c2ccccc2Sc2ccc(Cl)cc21`, the GI50 with HCT-116 colon is 3.28 µM and 3.6 µM; with K-562 leukemia, 3.16 µM; in the experiment on OVCAR-4 ovarian it was 7.84 µM and 9.23 µM; in the experiment on COLO 205 colon it was 1.89 µM and 2.85 µM; with MALME-3M melanoma, 14.9 µM and 3.04 µM; in the experiment on HL-60(TB) leukemia, 4.98 µM and 11.6 µM. The GI50 was 11.7 µM and 11.2 µM with DU-145 prostate; 4.32 µM and 3.77 µM with HS 578T breast. In addition, the TGI with HCT-116 colon is 10.9 µM and 12.8 µM; in the experiment on K-562 leukemia it was 11.3 µM; in the experiment on OVCAR-4 ovarian it was 20.7 µM and 22.5 µM; in the experiment with COLO 205 colon it was 3.77 µM and 7.68 µM; with MALME-3M melanoma, 31.5 µM and 15.8 µM; in the experiment on HL-60(TB) leukemia it was 20.7 µM and 28.6 µM. In addition, the TGI was 24.1 µM and 23.4 µM with DU-145 prostate; 24.4 µM and 21 µM in the experiment on HS 578T breast.
As for `CN(C)CCCC1(c2ccc(F)cc2)OCc2cc(-c3cncc4ccccc34)ccc21` (stereo unspecified), the GI50 with HCT-116 colon is 2.94 µM; with K-562 leukemia it was 2.02 µM; with OVCAR-4 ovarian it was 3.27 µM; in the experiment on COLO 205 colon, 2.07 µM; in the experiment on MALME-3M melanoma, 1.55 µM; in the experiment on HL-60(TB) leukemia it was 1.81 µM. Further, the GI50 is 3.4 µM in the experiment with DU-145 prostate and 2.78 µM in the experiment with HS 578T breast. Further, the TGI in the experiment on HCT-116 colon worked out at 11 µM; with K-562 leukemia, 5.17 µM; in the experiment on OVCAR-4 ovarian, 13.7 µM; with COLO 205 colon, 4.72 µM; in the experiment with MALME-3M melanoma, 3.09 µM; with HL-60(TB) leukemia, 4.15 µM. Besides, the TGI with DU-145 prostate was 11.8 µM; with HS 578T breast, 11.6 µM.
`COc1ccc2cc(-c3c(-c4ccncc4)nc(-c4ccc(S(C)=O)cc4C)n3C)ccc2c1` (stereo unspecified): the GI50 is 17.9 µM in the experiment on HCT-116 colon; 13.4 µM in the experiment on K-562 leukemia; 16.3 µM in the experiment on OVCAR-4 ovarian; 14.8 µM in the experiment on COLO 205 colon; 7.04 µM in the experiment on MALME-3M melanoma; 9.61 µM in the experiment with HL-60(TB) leukemia. Also, the GI50 in the experiment on DU-145 prostate and in the experiment on HS 578T breast was more than 25 µM throughout. In addition, the TGI with HCT-116 colon, in the experiment on K-562 leukemia, in the experiment on OVCAR-4 ovarian, in the experiment with COLO 205 colon, with MALME-3M melanoma and in the experiment with HL-60(TB) leukemia was more than 25 µM throughout. In addition, the TGI in the experiment on DU-145 prostate and in the experiment with HS 578T breast was more than 25 µM in each case.

Usually TGI stands for the concentration at which net growth stops. A higher TGI goes with lower sensitivity of the cells. As a reminder, the GI50 is the concentration at which growth is held to half of that of the control.
